Where two headings read alike, the source gives them in different places.
Key:
[1] = system: maximal electroshock; assay: Maximal electroshock (MES), anticonvulsive action, mouse i.p.; assay type: in vivo
Text: (§1) ^3) Mouse i.p.: MES = maximal electroshock, PTZ = s.c. pentetrazole
(§2) ^5) In % of the protected animals; n.t. = not tested

[2] = Octanol/water partition coefficient
[3] = molecular target: T1, adenosine receptor (A3) (Homo sapiens, UniProt P0DMS8); assay: Binding at the adenosine receptor (A3) and selectivities; details: for Ki: adenosine A3 receptor; for selectivity A3/A1: ratio A3/A1; for selectivity A3/A2: ratio A3/A2
T1 sequence (P0DMS8 1-318): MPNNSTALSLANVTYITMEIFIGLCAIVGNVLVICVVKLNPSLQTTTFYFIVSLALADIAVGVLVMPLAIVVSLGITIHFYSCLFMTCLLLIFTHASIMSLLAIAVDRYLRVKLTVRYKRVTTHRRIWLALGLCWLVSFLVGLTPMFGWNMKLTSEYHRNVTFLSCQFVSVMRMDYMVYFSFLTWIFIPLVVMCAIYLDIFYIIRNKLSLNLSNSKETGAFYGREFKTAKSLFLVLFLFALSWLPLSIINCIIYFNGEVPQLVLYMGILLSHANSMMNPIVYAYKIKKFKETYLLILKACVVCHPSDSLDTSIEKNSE

[4] = system: s.c. pentetrazole; assay: s.c. pentetrazole (PTZ), anticonvulsive action, mouse i.p.; assay type: in vivo; details: ip, read-out: Action, PTZ (protected animals)
Text: as §1, §2

[5] = system: eosinophilic granulocytes; assay: Inhibition of infiltration of eosinophilic granulocytes into the lungs (BAL, ovalbumin-challenged guinea-pigs, oral); assay type: in vivo, guinea-pig (Dunkin Hartley Shoe); details: guinea-pig, 100 mg/kg, 2 hours before allergen challenge
Procedure: The compounds of the present invention were tested in vivo for antiasthmatic action after oral administration to male guinea-pigs, and the inhibition of the infiltration of the eosinophilic granulocytes into the lungs was determined. Male guinea-pigs (Dunkin Hartley Shoe) weighing 200-250 g were actively sensitized by an s.c. injection of ovalbumin (10 μg+1 mg of aluminum hydroxide) and boosted 2 weeks later. One week after boosting with ovalbumin, the animals were challenged with an aerosol of 0.5% strength ovalbumin solution for 20-30 sec. 24 hours later, a bronchoalveolar lavage (BAL) was carried out in the animals under urethane anaesthesia using 2×5 ml of saline solution. The lavage fluid was collected and centrifuged at 400×g for 10 min and the cell pellets were suspended in 1 ml of saline solution. The eosinophilic granulocytes were counted microscopically in a Neubauer chamber. A Becton Dickinson test kit (No. 5877) for eosinophils was used for staining. The test kit used phloxine B as a selective stain for eosinophils. The eosinophils in the BAL were counted for each animal and the eosinophils were calculated in millions/animal. The test substances were administered orally 2 hours before allergen challenge.
The percentage inhibition of eosinophilia of the group treated with substance is calculated according to the following formula:
(A-C)-(B-C)/(A-C)×100=% inhibition […]

[6] = in vivo; details: rat, po
Text: (§3) Analogous results were obtained for the orally administered tests.

[7] = system: maximal electroshock; assay: Maximal electroshock, anticonvulsive action, rat p.o.; assay type: in vivo; details: for ED50: po, maximal electroshock
Text: Week-blad, Sc. Ed. 14, 132 (1992) and Antiepileptic Drugs, Third Ed., Raven Press, New York 1989.
as §3

[8] = ip, mouse i.p., 100 mg/kg, read-out: Action, MES (protected animals)
[9] = ip, mouse i.p., read-out: Action, MES (protected animals)

Row | logP [2] | Ki [3] | selectivity A3/A1 [3] | selectivity A3/A2 [3] | Molecule | responders at 100 mg/kg [1, 8] | responders at 100 mg/kg ([4]; mouse i.p., 100 mg/kg) | responders at 30 mg/kg [1, 9] | also measured
1 | 1.4 | 500 nM | 0.008 | < 0.001 | S=c1[nH]cnc2nn(Cc3ccccc3I)cc12 [Example 17, 2-(2-iodobenzyl)pyrazolo[3,4-d]pyrimidine-4(5H)-thione] | 30% | – | – | –
2 | 0.62 | 9800 nM | 0.5 | 0.01 | COc1ccc(Cn2cc3c(=O)[nH]cnc3n2)cc1 [Example 12, 2-(4-methoxybenzyl)pyrazolo[3,4-d]pyrimidin-4(5H)-one] | 15% | – | – | responders at 300 mg/kg ([4]; mouse i.p.): 40%
3 | 1.16 | 1600 nM | 0.02 | 0.02 | O=c1[nH]cnc2nn(Cc3c(Cl)cccc3Cl)cc12 [Example 10, 2-(2,6-dichlorobenzyl)pyrazolo[3,4-d]pyrimidin-4(5H)-one] | 60% | – | – | –
4 | 1.2 | 340 nM | 0.005 | < 0.001 | S=c1[nH]cnc2nn(Cc3ccccc3Br)cc12 [Example 16, 2-(2-bromobenzyl)pyrazolo[3,4-d]pyrimidine-4(5H)-thione] | 30% | – | – | –
5 | 1.21 | 8300 nM | 0.4 | 0.02 | O=c1[nH]cnc2nn(Cc3cc4c(cc3Cl)OCO4)cc12 [Example 13, 2-(2-chloro-4,5-methylenedioxybenzyl)pyrazolo[3,4-d]pyrimidin-4(5H)-one] | 30% | – | – | –
6 | 1.68 | 710 nM | 0.04 | 0.01 | O=c1[nH]cnc2nn(Cc3ccc(Cl)cc3Cl)cc12 [Example 11, 2-(2,4-dichlorobenzyl)pyrazolo[3,4-d]pyrimidin-4(5H)-one] | 100% | 20% | – | –
7 | 0.93 | 1000 nM | 0.002 | 0.004 | O=c1[nH]cnc2nn(Cc3c(F)cccc3Cl)cc12 [Example 9, 2-(2-chloro-6-fluorobenzyl)pyrazolo[3,4-d]pyrimidin-4(5H)-one] | – | – | 100% | –
8 | 1.6 | – | – | – | FC(F)(F)c1ccccc1Cn1cc2c(=S)[nH]cnc2n1 [Example 18, 2-(2-trifluoromethylbenzyl)pyrazolo[3,4-d]pyrimidine-4(5H)-thione] | 100% | 80% | – | –
9 | 1.57 | – | – | – | Fc1cccc(F)c1Cn1cc2c(=S)[nH]cnc2n1 [Example 19, 2-(2,6-difluorobenzyl)pyrazolo[3,4-d]pyrimidine-4(5H)-thione] | – | 60% | 100% | –

Second part, the molecule before the results:

Row | Molecule | logP [2] | Ki [3] | selectivity A3/A1 [3] | selectivity A3/A2 [3] | responders at 100 mg/kg [1, 8] | responders at 100 mg/kg ([4]; mouse i.p., 100 mg/kg) | responders at 30 mg/kg [1, 9] | also measured
10 | O=c1[nH]cnc2nn(Cc3ccccc3Br)cc12 [Example 3, 2-(2-bromobenzyl)pyrazolo[3,4-d]pyrimidin-4(5H)-one] | 0.56 | 430 nM | 0.008 | 0.005 | 100% | – | – | responders at 300 mg/kg ([4]; mouse i.p.): 80%; % inhibition of infiltration of eosinophilic granulocytes into the lung [5]: 74%
11 | S=c1[nH]cnc2nn(Cc3ccccc3Cl)cc12 [Example 15, 2-(2-chlorobenzyl)pyrazolo[3,4-d]pyrimidine-4(5H)-thione] | 1.54 | 500 nM | 0.007 | < 0.001 | 100% | 60% | – | TD50 [6]: > 460 mg/kg; therapeutic breadth, in words [6]: great therapeutic breadth; ED50 [7]: 12 mg/kg; anticonvulsive action, in words ([7]; qualitative): strongly anticonvulsive
12 | 2-benzyl-pyrazolo-[3,4-d]-pyrimidine [reference compound] | – | – | – | – | – | – | – | Action, MES (protected animals) ([1]; mouse i.p., 100 mg/kg): 100%; Log P (octanol/water partition coefficient): 0.40
13 | O=c1[nH]cnc2nn(Cc3cccc(C(F)(F)F)c3)cc12 [Example 7, 2-(3-trifluoromethylbenzyl)pyrazolo[3,4-d]pyrimidin-4(5H)-one] | 1 | – | – | – | – | 60% | 100% | –
14 | O=c1[nH]cnc2nn(Cc3ccccc3F)cc12 [Example 1, 2-(2-fluorobenzyl)pyrazolo[3,4-d]pyrimidin-4(5H)-one] | 0.2 | 3200 nM | 0.7 | 0.01 | – | 100% | 100% | –
15 | O=c1[nH]cnc2nn(Cc3ccccc3C(F)(F)F)cc12 [Example 5, 2-(2-trifluoromethylbenzyl)pyrazolo[3,4-d]pyrimidin-4(5H)-one] | 1.08 | 790 nM | 0.002 | 0.007 | – | – | 100% | responders at 30 mg/kg ([4]; mouse i.p.): 20%
16 | CCCC(CCC)C(=O)O [Valproate, reference compound] | – | – | – | – | – | – | – | responders at 100 mg/kg ([1]; Mus musculus, ip, read-out: Action, MES (protected animals)): 0%; responders at 100 mg/kg ([4]; Mus musculus): 30%
17 | O=c1[nH]cnc2nn(Cc3ccccc3I)cc12 [Example 4, 2-(2-iodobenzyl)pyrazolo[3,4-d]pyrimidin-4(5H)-one] | 0.74 | 490 nM | 0.008 | < 0.0005 | – | – | – | responders at 300 mg/kg ([1]; ip, mouse i.p., 300 mg/kg, read-out: Action, MES (protected animals)): 100%
18 | O=c1[nH]cnc2nn(Cc3c(F)cccc3F)cc12 [Example 8, 2-(2,6-difluorobenzyl)pyrazolo[3,4-d]pyrimidin-4(5H)-one] | 0.18 | – | – | – | – | – | 100% | responders at 30 mg/kg ([4]; mouse i.p.): 40%
19 | Cc1ccccc1Cn1cc2c(=O)[nH]cnc2n1 [Example 6, 2-(2-methylbenzyl)pyrazolo[3,4-d]pyrimidin-4(5H)-one] | 0.75 | 4000 nM | 0.01 | 0.08 | – | 20% | 100% | –
20 | O=c1[nH]cnc2nn(Cc3ccccc3Cl)cc12 [Example 2, 2-(2-chlorobenzyl)pyrazolo[3,4-d]pyrimidin-4(5H)-one] | 1.01 | 2000 nM | 0.02 | 0.06 | 100% | 60% | – | TD50 [6]: > 250 mg/kg; ED50 [7]: 32 mg/kg
21 | NC(=O)N1c2ccccc2C=Cc2ccccc21 [Carbamazepine, reference compound] | – | – | – | – | 100% | 0% | – | –
